Experiments:
[1] = Cytotoxicity against human NCI-H460 cells assessed as reduction in cell viability after 48 hrs by MTT assay; format: functional, cell-based; settings: NCI-H460, 48 h
[2] = system: Mus musculus; assay: Toxicity in mouse assessed as death time administered as submicron emulsions through caudal vein injection dosed daily; format: organism-based; settings: in vivo, iv
[3] = Cytotoxicity against human SMMC7721 cells assessed as reduction in cell viability after 48 hrs by MTT assay; format: functional, cell-based; settings: SMMC-7721, 48 h
[4] = Cytotoxicity against human SKOV3 cells assessed as reduction in cell viability after 48 hrs by MTT assay; format: functional, cell-based; settings: SK-OV-3, 48 h
[5] = Cytotoxicity against human SGC7901 cells assessed as reduction in cell viability after 48 hrs by MTT assay; format: functional, cell-based; settings: SGC-7901, 48 h
[6] = Cytotoxicity against human HCT116 cells assessed as reduction in cell viability after 48 hrs by MTT assay; format: functional, cell-based; settings: HCT-116, 48 h
[7] = Cytotoxicity against human U251 cells assessed as reduction in cell viability after 48 hrs by MTT assay; format: functional, cell-based; settings: U-251, 48 h
[8] = system: Mus musculus; assay: Toxicity in nude mouse xenografted with […] cells assessed as induction of mouse mortality at 10 mg/kg administered as submicron emulsions through caudal vein injection dosed daily for 14 days; format: organism-based; settings: in vivo, iv, 336 h
[9] = Antitumor activity against H22 cells xenografted in nude mouse assessed as tumor growth inhibition at 20 mg/kg administered as submicron emulsions through caudal vein injection dosed daily for 14 days; format: functional; settings: H22, 336 h; read-out: TGI
[10] = system: Mus musculus; assay: Toxicity in nude mouse xenografted with […] cells assessed as body weight level at 10 mg/kg administered as submicron emulsions through caudal vein injection dosed daily for 14 days (reference value: 42.63 +/- 5.81 g); format: organism-based; settings: in vivo, iv, 336 h
[11] = Antitumor activity against H22 cells xenografted in nude mouse assessed as tumor growth inhibition at 10 mg/kg administered as submicron emulsions through caudal vein injection dosed daily for 14 days; format: functional; settings: H22, 336 h; read-out: TGI
[12] = system: Mus musculus; assay: Toxicity in nude mouse xenografted with […] cells assessed as body weight level at 20 mg/kg administered as submicron emulsions through caudal vein injection dosed daily for 14 days (reference value: 42.63 +/- 5.81 g); format: organism-based; settings: in vivo, iv, 336 h
[13] = system: Mus musculus; assay: Toxicity in nude mouse xenografted with […] cells assessed as induction of mouse mortality at 20 mg/kg administered as submicron emulsions through caudal vein injection dosed daily for 14 days; format: organism-based; settings: in vivo, iv, 336 h
[14] = Cytotoxicity against human SGC7901 cells assessed as reduction in cell viability after 24 hrs by MTT assay; format: functional, cell-based; settings: SGC-7901, 24 h
[15] = system: Mus musculus; assay: Toxicity in nude mouse xenografted with […] cells assessed as body weight level at 6 mg/kg administered as submicron emulsions through caudal vein injection dosed every 3 days for 14 days (reference value: 42.63 +/- 5.81 g); format: organism-based; settings: in vivo, iv
[16] = Cytotoxicity against human SMMC7721 cells assessed as reduction in cell viability after 24 hrs by MTT assay; format: functional, cell-based; settings: SMMC-7721, 24 h
[17] = Toxicity in mouse assessed as tolerance dose administered as submicron emulsions through caudal vein injection dosed daily for 7 days; format: organism-based; settings: in vivo, iv, read-out: Activity
[18] = Cytotoxicity against human HCT116 cells assessed as reduction in cell viability after 24 hrs by MTT assay; format: functional, cell-based; settings: HCT-116, 24 h
[19] = Antitumor activity against H22 cells xenografted in nude mouse assessed as tumor growth inhibition at 6 mg/kg administered as submicron emulsions through caudal vein injection dosed every 3 days for 14 days; format: functional; settings: read-out: TGI
[20] = Cytotoxicity against human NCI-H460 cells assessed as reduction in cell viability after 24 hrs by MTT assay; format: functional, cell-based; settings: NCI-H460, 24 h
[21] = Cytotoxicity against human U251 cells assessed as reduction in cell viability after 24 hrs by MTT assay; format: functional, cell-based; settings: U-251, 24 h
[22] = Cytotoxicity against human SKOV3 cells assessed as reduction in cell viability after 24 hrs by MTT assay; format: functional, cell-based; settings: SK-OV-3, 24 h

Structure (SMILES)	IC50 [1] [µM]	Time [2] [days]	IC50 [3] [µM]	IC50 [4] [µM]	IC50 [5] [µM]	IC50 [6] [µM]	IC50 [7] [µM]	other results
C[C@@H]1O[C@@H](O[C@H]2[C@H](O[C@H]3CC[C@]4(C)[C@H]5CC=C6[C@@H]7CC(C)(C)CC[C@]7(C(=O)OCC(=O)O)CC[C@@]6(C)[C@]5(C)CC[C@H]4C3(C)C)OC[C@H](O[C@@H]3O[C@H](CO)[C@@H](O)[C@H](O)[C@H]3O)[C@@H]2O)[C@H](O)[C@H](O)[C@H]1O	1.8	7	2.2	2.7	3.3	3.9	2	–
C[C@@H]1O[C@@H](O[C@H]2[C@H](O[C@H]3CC[C@]4(C)[C@H]5CC=C6[C@@H]7CC(C)(C)CC[C@]7(C(=O)OCCCO)CC[C@@]6(C)[C@]5(C)CC[C@H]4C3(C)C)OC[C@H](O[C@@H]3O[C@H](CO)[C@@H](O)[C@H](O)[C@H]3O)[C@@H]2O)[C@H](O)[C@H](O)[C@H]1O	55.7	–	> 100	> 100	47.3	39.2	43.5	–
CCOC(=O)[C@]12CCC(C)(C)C[C@H]1C1=CC[C@@H]3[C@@]4(C)CC[C@H](O[C@@H]5OC[C@H](O[C@@H]6O[C@H](CO)[C@@H](O)[C@H](O)[C@H]6O)[C@H](O)[C@H]5O[C@@H]5O[C@@H](C)[C@H](O)[C@@H](O)[C@H]5O)C(C)(C)[C@@H]4CC[C@@]3(C)[C@]1(C)CC2	2.7	–	3.5	5.8	4.9	5.3	1.6	–
C[C@@H]1O[C@@H](O[C@H]2[C@H](O[C@H]3CC[C@]4(C)[C@H]5CC=C6[C@@H]7CC(C)(C)CC[C@]7(C(=O)OCCO)CC[C@@]6(C)[C@]5(C)CC[C@H]4C3(C)C)OC[C@H](O[C@@H]3O[C@H](CO)[C@@H](O)[C@H](O)[C@H]3O)[C@@H]2O)[C@H](O)[C@H](O)[C@H]1O	46.7	–	35.6	19.7	20.6	25.6	13.4	–
C[C@@H]1O[C@@H](O[C@H]2[C@H](O[C@H]3CC[C@]4(C)[C@H]5CC=C6[C@@H]7CC(C)(C)CC[C@]7(C(=O)OCCC(=O)O)CC[C@@]6(C)[C@]5(C)CC[C@H]4C3(C)C)OC[C@H](O[C@@H]3O[C@H](CO)[C@@H](O)[C@H](O)[C@H]3O)[C@@H]2O)[C@H](O)[C@H](O)[C@H]1O	9.8	–	2.7	5.4	6.5	11.1	4.6	–
CNC(=O)[C@]12CCC(C)(C)C[C@H]1C1=CC[C@@H]3[C@@]4(C)CC[C@H](O[C@@H]5OC[C@H](O[C@@H]6O[C@H](CO)[C@@H](O)[C@H](O)[C@H]6O)[C@H](O)[C@H]5O[C@@H]5O[C@@H](C)[C@H](O)[C@@H](O)[C@H]5O)C(C)(C)[C@@H]4CC[C@@]3(C)[C@]1(C)CC2	> 100	–	> 100	> 100	55.8	41.9	46.7	–
CCCOC(=O)[C@]12CCC(C)(C)C[C@H]1C1=CC[C@@H]3[C@@]4(C)CC[C@H](O[C@@H]5OC[C@H](O[C@@H]6O[C@H](CO)[C@@H](O)[C@H](O)[C@H]6O)[C@H](O)[C@H]5O[C@@H]5O[C@@H](C)[C@H](O)[C@@H](O)[C@H]5O)C(C)(C)[C@@H]4CC[C@@]3(C)[C@]1(C)CC2	8.3	–	4.7	12.3	11.9	9.7	1.8	–
C[C@@H]1O[C@@H](O[C@H]2[C@H](O[C@H]3CC[C@]4(C)[C@H]5CC=C6[C@@H]7CC(C)(C)CC[C@]7(C(=O)OCCCC(=O)O)CC[C@@]6(C)[C@]5(C)CC[C@H]4C3(C)C)OC[C@H](O[C@@H]3O[C@H](CO)[C@@H](O)[C@H](O)[C@H]3O)[C@@H]2O)[C@H](O)[C@H](O)[C@H]1O	14.1	–	8.3	9.6	7.4	20.2	11.7	–
COC(=O)[C@]12CCC(C)(C)C[C@H]1C1=CC[C@@H]3[C@@]4(C)CC[C@H](O[C@@H]5OC[C@H](O[C@@H]6O[C@H](CO)[C@@H](O)[C@H](O)[C@H]6O)[C@H](O)[C@H]5O[C@@H]5O[C@@H](C)[C@H](O)[C@@H](O)[C@H]5O)C(C)(C)[C@@H]4CC[C@@]3(C)[C@]1(C)CC2	1.3	> 7	3.5	3.1	1.7	4.6	1.1	Activity [8]: Non-Toxic; inhibition in vivo at 20 mg/kg [9]: 46.8%; Activity [10]: 41.05 g; inhibition in vivo at 10 mg/kg [11]: 36.2%; Activity [12]: 39.74 g; Activity [13]: Non-Toxic
C[C@@H]1O[C@@H](O[C@H]2[C@H](O[C@H]3CC[C@]4(C)[C@H]5CC=C6[C@@H]7CC(C)(C)CC[C@]7(C(=O)O)CC[C@@]6(C)[C@]5(C)CC[C@H]4C3(C)C)OC[C@H](O[C@@H]3O[C@H](CO)[C@@H](O)[C@H](O)[C@H]3O)[C@@H]2O)[C@H](O)[C@H](O)[C@H]1O [HEDERACOLCHISIDE A1]	3.7	< 0.042	2.8	3.3	1.7	8.4	2.2	IC50 [14]: 1.7 µM; Activity [15]: 41.76 g; IC50 [16]: 2.8 µM; MTD at 168 h [17]: < 8 mg/kg; IC50 [18]: 8.4 µM; inhibition in vivo at 6 mg/kg [19]: 47.5%; IC50 [20]: 3.7 µM; IC50 [21]: 2.2 µM; IC50 [22]: 1.3 µM
